What was measured:
[1] = test system: cell lines; conditions: transfection of certain cell lines, compared with DOTMA; cited from earlier work
[2] = test system: cell lines; conditions: certain cell lines, compared with DOTMA; cited from earlier work
[3] = test system: anti-CAT immune response in mice; assay: ELISA and Western blot after IP immunization with CAT plasmids with different promoters (Example 3); format: in vivo; conditions: compared with LIPOFECTACE
Protocol: A CAT enzyme-linked immunoassay (ELISA) was used to determine the presence of CAT antibodies in mouse sera samples. Microwell titer plates were prepared by incubating each well of the plate with 1 microgram/ml of CAT in 0.1 M sodium carbonate buffer, pH 9.5. The plates were incubated for 18 hours at 4ΕC. The wells were blocked with 0.2% ovalbumin dissolved in phosphate-buffered saline (PBS) with 0.1% Tween-20 (dilution buffer). Samples were diluted in the dilution buffer, and 200 microliters were added to a well on the plate. The plate was sealed, and then incubated for 60 minutes at 37 degrees C. Following a wash, the plates were incubated with 0.1 micrograms/ml goat anti-mouse IgG—horseradish peroxidase (HRP) conjugate. The plate was sealed and then incubated for 30 minutes at 37 degrees C. Following a second wash, the plates were developed with 3,3′,5,5′-tetramethylbenzidine substrate at room temperature. The reaction was stopped by adding 2N sulfuric acid.
The results were analyzed using Western Blot analysis. Nitrocellulose sheets were prepared by applying purified CAT protein to the nitrocellulose (0.1 micrograms CAT protein/cm nitrocellulose). Sera samples were diluted into dilution buffer and 2 ml were added to each nitrocellulose strip. The strips were incubated for 90 minutes with rocking at room temperature. […]

Structure (SMILES)	toxicity [1]	transfection efficiency [2]	consistency in generating an immune response (ELISA) [3]
CC(C)CCC[C@@H](C)[C@H]1CC[C@H]2[C@@H]3CC=C4C[C@@H](OC(=O)NCCN(C)C)CC[C@]4(C)[C@H]3CC[C@]12C [DC-Chol]	lower toxicity	more efficient transfection	–
CCCCCCCCCCCCCCCCCCN(CCCCCCCCCCCCCCCCCC)C(=O)CNC(=O)C(CCCNCCCN)NCCCN (stereo not shown) [DOGS, 5-carboxylspermylglycine dioctadecylamide]	less toxic than DOTMA	more efficient	–
CCCCCCCCCCCCCCCC(=O)OCC(COP(=O)(O)OCCNC(=O)C(CCCNCCCN)NCCCN)OC(=O)CCCCCCCCCCCCCCC (stereo not shown) [DPPES, dipalmitoylphosphatidylethanolamine 5-carboxyspermylamide]	less toxic than DOTMA	more efficient	–
CCCCCCCCC=CCCCCCCCCOCC(C[N+](C)(C)CCBr)OCCCCCCCCC=CCCCCCCCC.[Br-] (stereo not shown) [bromo lipid, 1-propanaminium, N-[2(2-bromo)ethyl]-N,N-dimethyl-2,3-bis(9-octadecenyloxy)-bromide]	–	–	more consistent results
